{
  "source": "patent US20250345350A1",
  "about": "“TREATING PAIN ASSOCIATED WITH CENTRAL SENSITIZATION” (Medicon Pharmaceuticals, Inc., priority 2022, published 2025)",
  "key": {"[1]": {"test": "Preliminary in vivo evidence, PS to the ocular surface, corneal neuropathic pain (Example 22)", "conditions": "topical PS to the ocular surface"}, "[2]": {"system": "paclitaxel-induced CIPN in C57BL/6J mice", "test": "Thermal allodynia PWL (radiant heat), mouse model of CIPN, oral administration (Example 5)", "conditions": "day 16 of treatment, oral PS 50 mg/kg, sulindac 33 mg/kg", "description": "Group 1: paclitaxel plus vehicle (n=8) • 2. […] Group 3: paclitaxel pluse sulindac (n=8)\nThe animal is placed into a plastic box with an elevated glass floor. The beam of the lamp probe is focused on the paw plantar surface, until the animal withdraws the paw, and sensors in the device shut off the lamp. The thermal allodynia threshold is defined as the latency time until paw withdrawal (PWL) and expressed in seconds (sec) or thermal allodynia threshold."}, "[3]": {"test": "PS to outer surface of the eyelid in a subject after LASIK (Example 22)", "format": "in vivo", "conditions": "topical PS to the outer surface of the eyelid, one subject"}, "[4]": {"system": "oxaliplatin-induced pain associated with central sensitization in C57BL/6J mice", "test": "Mechanical allodynia (von Frey), oxaliplatin-induced pain, topical PS 8% (Example 2)", "format": "in vivo, mouse", "text": "(§1) Food and water were available ad libitum.\n(§2) Protocol for the Treatment of Established Pain Associated with Central Sensitization with PS\n(§3) Paw withdrawn, licking or shaking were considered positive responses."}, "[5]": {"system": "chronic constriction injury-induced peripheral neuropathy in C57BL/6J mice", "test": "PWT (von Frey), PTPN model, oral administration (Examples 9 and 10)", "conditions": "day 6; PS orally three times a day for 6 days at 100 mg/kg", "protocol": "Group 1: ligation only (i.e, surgical control with no treatment, n=9) • 2. Group 2: vehicle (n=9) • 3.\nMechanical allodynia was determined using the method of von Frey filaments in line with that performed in the earlier Examples. The PWT test was performed on day 6. The mechanical threshold, expressed as g, indicates the force of the von Frey filament to which the animal reacted."}, "[6]": {"system": "paclitaxel-induced central sensitization in C57/BL/6J mice", "test": "Cold allodynia (acetone test), paclitaxel model (Example 3)", "format": "in vivo, mouse", "conditions": "PS 5% for 15 days; day 15", "method": "To determine the outcome of treatment, assessment of mechanical allodynia was performed. […] Both methods of assessing allodynia are described in Toma W, et al. Neuropharmacology 2017; 117:305-15. Mechanical and cold allodynia are determined at least one day apart in the same animal.\nThe acetone test was used. Briefly, acetone was applied onto the plantar surface of each hind paw. The time each mouse spent licking, lifting, and/or shaking the hind paw recorded over 60 seconds was the score for cold allodynia. Measurements were performed on day-8 (before the first paclitaxel injection), the day of starting treatment (day 0) and then on day 15."}, "[7]": {"test": "Pharmacokinetics and biodistribution of PS upon oral administration (Example 27)", "format": "in vivo, rat", "conditions": "rats, single oral dose of PS 250 mg/kg; for AUC(0-t) / Cmax / half-life: Sprague-Dawley, rat; for AUC(0-t): read-out: AUC0-24 h; for Cmax: read-out: Cmax, Mean ± SEM", "protocol": "Approximately 800 μL of blood were collected through cardiac puncture and immediately centrifuged.\nTissue samples were harvested using separate dissection instruments for each tissue sample to avoid cross contamination, and snap frozen. The levels of the test drug were determined by HPLC.\nAs previously described (Wen et al, 2019), each plasma sample was mixed with double volume of acetonitrile and centrifuged at 13,200 rpm for 15 min. Tissue samples were weighed, ddH2O (100-300 μL, depending on tissue weight) was added, and they were homogenized. Following addition of acetonitrile (twice the volume of the homogenate), the mixture was sonicated for 10 min, centrifuged at 13,200 rpm for 15 min, and analyzed by HPLC, as reported (Wen et al, 2019).\nBriefly, the HPLC system consisted of a Waters Alliance 2695 Separations Module (Milford, MA, USA) equipped with a Waters 2998 photodiode array detector (328 nm) and a Thermo Hypersil BDS C18 column (150×4.6 mm, particle size 3 pm). The mobile phase consisted of a gradient between solvent A (formic acid, CH3CN, H2O (0.1:4.9:95 v/v/v)) and solvent B (CH3CN) at a flow rate of 1 mL-min−1 at 30° C. We applied gradient elution from 30 to 100% solvent B from 0-6 min, and it was maintained at 100% solvent B until 8 min."}, "[8]": {"system": "paclitaxel-induced CIPN in C57BL/6J mice", "test": "PWT (von Frey), mouse model of CIPN, oral administration (Example 5)", "format": "in vivo", "conditions": "day 7; oral gavage three times a day for 7 days, PS 50 mg/kg, sulindac 33 mg/kg", "text": "CIPN was induced in mice with chemotherapeutic agents using established protocols (Carozzi et al, 2010; Currie et al, 2019; Eldridge et al, 2020). […] This dosing regimen of paclitaxel produces pain associated with CIPN with time courses that are similar to those of pain after paclitaxel administration in cancer patients.\nGroup 1: naive mice (i.e. no paclitaxel, n=8) • 2. Group 2: paclitaxel only (n=8) • 3. Group 3: paclitaxel plus vehicle (n=8) • 4. […] Group 5: paclitaxel plus sulindac (n=8)\nThe PWT test was performed on day 7."}, "[9]": {"test": "Preliminary in vivo evidence, topical PS hydrogel, PHN (Example 19)"}, "[10]": {"test": "Preliminary in vivo evidence, topical PS hydrogel, PTPN (Example 6)"}, "[11]": {"system": "chronic constriction injury-induced peripheral neuropathy in C57BL/6J mice", "test": "Thermal allodynia PWL, chronic constriction injury model of PTPN, topical (Example 7)", "format": "in vivo, mouse", "conditions": "PS 5% topical"}, "[12]": {"system": "NTG-induced migraine in mice", "test": "PWT (von Frey), NTG-induced migraine mouse model, oral (Example 14)", "conditions": "30 min after oral dose given 30 min after NTG; PS 50 mg/kg, sulindac 33 mg/kg", "protocol": "In line with the earlier Examples, migraine was induced using 0.4 mg of NTG was administered sublingually in the form of a finely crushed 0.4 mg NTG tablet (Greenstone Brand).\nGroup 1: baseline (i.e, no NTG treatment, n=6) • 2. Group 2: vehicle (n=6) • 3. […] Group 4: sulindac (n=6)\nMechanical allodynia was determined using the method of von Frey filaments in line with that performed in the earlier Examples. […] The mechanical threshold, expressed as g, indicates the force of the von Frey filament to which the animal reacted."}, "[13]": {"system": "chronic constriction injury-induced peripheral neuropathy in C57BL/6J mice", "test": "PWT (von Frey), chronic constriction injury model of PTPN, topical (Example 7)", "conditions": "day 14; PS 5% gel or sulindac 0.7% gel on left paw three times a day for 14 days; pregabalin once by oral gavage 1 h before", "protocol": "Group 1: ligation only (i.e, surgical control with no treatment, n=5-7) • 2. Group 2: vehicle control (n=5-7) • 3. […] Group 4: 0.7% sulindac (n=5-7) • 5.\nBriefly, for determining mechanical allodynia, pain threshold responses were measured using the well-established method of von Frey filaments in line with that performed in the earlier Examples. The PWT test was performed on day 14. The mechanical threshold, expressed as g, indicates the force of the von Frey filament to which the animal reacted."}, "[14]": {"system": "paclitaxel-induced central sensitization in C57/BL mice", "test": "Paw withdrawal threshold (von Frey), paclitaxel model, topical PS (Example 1)", "conditions": "day 10, about 30 min after last application; PS 8% hydrogel topically to both hind paws 3 times a day for 10 days", "protocol": "The paclitaxel was administered into all study groups once a day for 3 days.\nThe first doses were administered 2 days after the last administration of paclitaxel.\nThe study groups were as follows: • 1. Group 1: paclitaxel only (n=9) • 2. Group 2: paclitaxel plus vehicle (n=10) • 3.\nIn order to determine the outcome of the treatment, pain threshold responses were measured using the well-established method of von Frey filaments. […] The results of the PWT test are expressed as force applied (gm). […] The data is expressed as percent change from the respective baseline value."}, "[15]": {"system": "vincristine-induced pain associated with central sensitization in C57BL/6J mice", "test": "Mechanical allodynia (von Frey), vincristine-induced pain, topical PS 8% (Example 2)", "format": "in vivo, mouse", "text": "as §1, §2, §3"}, "[16]": {"test": "Safety of PS ointment applied to hind paws of mice", "format": "in vivo, mouse", "conditions": "PS ointment thrice daily to the hind paws of mice for up to 22 days", "text": "This finding is in keeping with the known safety profile of PS."}, "[17]": {"system": "chronic constriction injury-induced PTPN in C57BL/6J mice", "test": "PWT of operated limb, PS applied to contralateral hind paw, PTPN model (Example 8)", "format": "in vivo, mouse", "method": "Group 2: vehicle control (n=6) • 3. Group 3: PS 8% (n=6)\nThe PWT test was performed on day 4.\nAdditionally, in a second study, the speed at which PS can treat pain associated with PTPN was assessed by assessing the effect of PS on mechanical allodynia shortly after topical administration of PS. As above, PTPN was induced using chronic constriction injury, by ligating the left sciatic nerve, to induce neuropathic pain manifested as allodynia affecting the left limb of the mice. PS (as a 5% gel) was applied only once onto the contralateral (right) hind paw of mice, prior to determining mechanical allodynia on the operated limb at different time points post-dosing.\nGroup 2: PS 5%, assessed at t=0.5 h post-dosing (n=5) • 3. Group 3: PS 5%, assessed at t=1.0 h post-dosing (n=5) • 4. Group 4: PS 5%, assessed at t=2.0 h post-dosing (n=5)"}, "[18]": {"system": "paclitaxel-induced pain associated with central sensitization in C57BL/6J mice", "test": "Mechanical allodynia (von Frey), paclitaxel-induced pain, topical PS 8% (Example 2)", "format": "in vivo, mouse", "text": "as §1, §3"}, "[19]": {"biological_target": "COX-1 (Homo sapiens, UniProt P23219)", "sequence (P23219 24-599)": "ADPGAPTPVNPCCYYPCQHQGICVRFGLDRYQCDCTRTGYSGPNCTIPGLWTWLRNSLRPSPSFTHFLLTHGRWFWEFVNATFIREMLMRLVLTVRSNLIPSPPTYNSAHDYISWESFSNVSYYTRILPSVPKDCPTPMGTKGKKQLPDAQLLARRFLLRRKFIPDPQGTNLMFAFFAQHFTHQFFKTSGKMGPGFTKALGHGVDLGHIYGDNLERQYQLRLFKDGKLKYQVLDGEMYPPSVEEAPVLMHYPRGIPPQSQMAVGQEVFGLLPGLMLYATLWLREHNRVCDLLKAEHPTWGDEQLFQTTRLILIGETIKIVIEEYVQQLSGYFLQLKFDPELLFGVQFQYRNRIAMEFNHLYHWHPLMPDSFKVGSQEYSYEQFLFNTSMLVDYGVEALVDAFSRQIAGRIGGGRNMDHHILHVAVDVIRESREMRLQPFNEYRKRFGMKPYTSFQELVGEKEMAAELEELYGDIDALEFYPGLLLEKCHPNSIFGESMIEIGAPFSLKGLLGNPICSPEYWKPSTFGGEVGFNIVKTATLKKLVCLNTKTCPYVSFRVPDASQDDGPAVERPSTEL", "conditions": "background statement; cited from earlier work"}},
  "note": "Where two headings read alike, the source gives them in different places.",
  "data": [
    {"smiles": "CCOP(=O)(OCC)OCCCCOC(=O)CC1=C(C)/C(=C/c2ccc([S+](C)[O-])cc2)c2ccc(F)cc21", "note": "(stereo not drawn) [PS, phosphosulindac]", "values": [
      {"measurement": "analgesic effect on corneal neuropathic pain", "setting": "[1]", "value": "striking analgesic effect"},
      {"measurement": "PWL, sec Mean ± SEM", "setting": "[2]", "value": "10.78 ± 1.1", "unit": "s"},
      {"measurement": "effect on chronic pain after LASIK", "setting": "[3]", "value": "dramatically reduced chronic pain"},
      {"measurement": "mechanical allodynia score, mean±SEM", "setting": "[4]; after PS treatment (day 22), PS 8% ointment 3x/day", "value": "1.8 ± 0.09", "unit": "g"},
      {"measurement": "mechanical allodynia score, mean±SEM", "setting": "[4]; day -15 baseline of PS group", "value": "1.76 ± 0.13", "unit": "g"},
      {"measurement": "PWT, g Mean ± SEM", "setting": "[5]", "value": "1.63 ± 0.38", "unit": "g"},
      {"measurement": "cold allodynia score (acetone test)", "setting": "[6]", "value": "3.1 ± 0.4", "unit": "s"},
      {"measurement": "AUC(0-t)", "setting": "[7]; cerebellum", "value": 0.2, "unit": "µM·h"},
      {"measurement": "Cmax", "setting": "[7]; cerebellum", "value": "300 ± 70", "unit": "nM"},
      {"measurement": "AUC(0-t)", "setting": "[7]; medulla", "value": 0.3, "unit": "µM·h"},
      {"measurement": "Cmax", "setting": "[7]; medulla", "value": "500 ± 100", "unit": "nM"},
      {"measurement": "half-life", "setting": "[7]; stomach", "value": 3.3, "unit": "h"},
      {"measurement": "AUC(0-t)", "setting": "[7]; stomach", "value": 1280, "unit": "µM·h"},
      {"measurement": "Cmax", "setting": "[7]; stomach", "value": "661000 ± 6500", "unit": "nM"},
      {"measurement": "half-life", "setting": "[7]; vagus nerve", "value": 3.3, "unit": "h"},
      {"measurement": "AUC(0-t)", "setting": "[7]; vagus nerve", "value": 1.7, "unit": "µM·h"},
      {"measurement": "Cmax", "setting": "[7]; vagus nerve", "value": "1200 ± 200", "unit": "nM"},
      {"measurement": "detection in the systemic circulation", "setting": "[7]", "value": "No PS was detected"},
      {"measurement": "PWT, g Mean ± SEM", "setting": "[8]", "value": "0.99 ± 0.13", "unit": "g"},
      {"measurement": "analgesic effect on neuropathic pain associated with PHN", "setting": "[9]", "value": "striking analgesic effect"},
      {"measurement": "analgesic effect on neuropathic pain associated with PTPN", "setting": "[10]", "value": "striking analgesic effect"},
      {"measurement": "PWL, sec Mean ± SEM", "setting": "[11]", "value": "9.1 ± 2.9", "unit": "s"},
      {"measurement": "PWT, g Mean ± SEM", "setting": "[12]", "value": "1.96 ± 0.49", "unit": "g"},
      {"measurement": "PWT, g Mean ± SEM", "setting": "[13]", "value": "1.30 ± 0.15", "unit": "g"},
      {"measurement": "PWT, % baseline Mean ± SEM", "setting": "[14]", "value": "102.55 ± 4.92", "unit": "% baseline"},
      {"measurement": "increase of allodynia score compared to day 0", "setting": "[15]; PS 8% ointment 3x/day for 16 days", "value": 114, "unit": "%"},
      {"measurement": "mechanical allodynia score, mean±SEM", "setting": "[15]; day 16", "value": "1.5 ± 0.09", "unit": "g"},
      {"measurement": "topical or systemic side effects", "setting": "[16]", "value": "no topical or systemic side effects"},
      {"measurement": "PWT, g Mean ± SEM", "setting": "[17]; day 4, operated left limb, PS 8% gel on contralateral (right) hind paw 3 times a day for 4 days", "value": "1.16 ± 0.04", "unit": "g"},
      {"measurement": "PWT, g Mean ± SEM", "setting": "[17]; t = 0.5 h post-dosing, PS 5% gel applied once on contralateral hind paw", "value": "1.24 ± 0.10", "unit": "g"},
      {"measurement": "PWT, g Mean ± SEM", "setting": "[17]; t = 1.0 h post-dosing, PS 5% gel applied once on contralateral hind paw", "value": "1.16 ± 0.16", "unit": "g"},
      {"measurement": "PWT, g Mean ± SEM", "setting": "[17]; t = 2.0 h post-dosing, PS 5% gel applied once on contralateral hind paw", "value": "1.10 ± 0.19", "unit": "g"},
      {"measurement": "mechanical allodynia score, mean±SEM", "setting": "[18]; day 0 (initiation of treatment), paclitaxel-induced pain", "value": "0.79 ± 0.08", "unit": "g"},
      {"measurement": "mechanical allodynia score, mean±SEM", "setting": "[18]; day 5, PS 8% ointment 3x/day to hind paws", "value": "1.17 ± 0.07", "unit": "g"},
      {"measurement": "mechanical allodynia score, mean±SEM", "setting": "[18]; day 16, PS 8% ointment 3x/day to hind paws", "value": "2.49 ± 0.18", "unit": "g"},
      {"measurement": "inhibition of COX-1", "setting": "[19]", "value": "does not inhibit"}
    ]}
  ]
}
